The values that follow come from paper PMC8696028, “Tricarboxylate Citrate Transporter of an Oleaginous Fungus Mucor circinelloides WJ11: From Function to Structure and Role in Lipid Production” (Frontiers in Nutrition, 2021).

The structures appear in SMILES notation.

The target of the assay is T1, Tct (tricarboxylate citrate transporter; tricarboxylate carrier) (Mucor circinelloides, UniProt S2K4S3).
T1 construct: gene HMPREF1544_06035; full-length tct (321 residues), E. coli codon-optimised, pET30a(+) NdeI/HindIII with C-terminal His tag, E. coli BL21(DE3); urea-denatured, Ni-purified, renatured, reconstituted in liposomes
T1 sequence (S2K4S3 entry or part of it): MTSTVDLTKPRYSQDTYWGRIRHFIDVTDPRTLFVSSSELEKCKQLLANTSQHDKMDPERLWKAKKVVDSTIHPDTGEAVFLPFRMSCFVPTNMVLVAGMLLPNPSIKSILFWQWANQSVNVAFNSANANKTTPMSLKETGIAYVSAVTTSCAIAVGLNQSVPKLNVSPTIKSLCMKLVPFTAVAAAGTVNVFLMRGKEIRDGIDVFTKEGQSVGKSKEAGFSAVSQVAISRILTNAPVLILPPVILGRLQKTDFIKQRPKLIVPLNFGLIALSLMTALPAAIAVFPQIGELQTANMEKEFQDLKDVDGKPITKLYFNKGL
As to the kind of experiment: […]citrate/citrate exchange in Tct-reconstituted proteoliposomes, inhibitor-stop method. In kind it is biochemical. The note with it: 10 mM internal citrate, 0.01 mM external [14C]citrate, 2 min.

For the compound `Cc1ncc(COP(=O)(O)O)c(C=O)c1O` [pyridoxal 5'-phosphate], the “inhibition at 20 mM” value is “Pyridoxal-5'-phosphate (PLP) and pHMB strongly inhibit Tct transport activity”.
